Results reported in ChEMBL document CHEMBL1201862, “PubChem BioAssay data set” (2004).
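Tested at 5 concentrations; 48 h exposure; 96-well plates; endpoints linearly interpolated, else capped at highest concentration. GI50 marks 50% less growth.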 Active and inactive are the calls of the source. No stated cut-off is given here; in the data, active = GI50 up to about 1.1 µM and inactive = higher.

How the values were obtained:
Experiment in all cases: growth of human tumour cells (NCI), 48 h
SK-MEL-5 = system: SK-MEL-5
UO-31 = system: UO-31
RXF 393 = system: RXF 393
T47D = system: T47D
A549 = system: A549
786-0 = system: 786-0
SK-MEL-28 = system: SK-MEL-28
BT-549 = system: BT-549
NCI-H23 = system: NCI-H23
SF-295 = system: SF-295
Hs-578T = system: Hs-578T
M14 = system: M14
LOX IMVI = system: LOX IMVI
U-251 = system: U-251
HT-29 = system: HT-29
PC-3 = system: PC-3
NCI-H522 = system: NCI-H522
NCI-H460 = system: NCI-H460
ACHN = system: ACHN
EKVX = system: EKVX

Row | Structure (SMILES) | GI50 (SK-MEL-5) | GI50 (UO-31) | GI50 (RXF 393) | GI50 (T47D) | GI50 (A549) | GI50 (786-0) | GI50 (SK-MEL-28) | GI50 (BT-549) | GI50 (NCI-H23) | GI50 (SF-295) | GI50 (Hs-578T) | GI50 (M14) | GI50 (LOX IMVI) | GI50 (U-251) | GI50 (HT-29) | GI50 (PC-3) | GI50 (NCI-H522) | GI50 (NCI-H460) | GI50 (ACHN) | GI50 (EKVX)
1 | Cc1ccc(/N=N/c2c(O)ccc3ccccc23)c(C)c1 | > 100 µM (inactive) | > 100 µM (inactive) | > 100 µM (inactive) | > 100 µM (inactive) | > 100 µM (inactive) | > 100 µM (inactive) | > 100 µM (inactive) | > 100 µM (inactive) | > 100 µM (inactive) | > 100 µM (inactive) | > 100 µM (inactive) | > 100 µM (inactive) | > 100 µM (inactive) | > 100 µM (inactive) | > 100 µM (inactive) | > 100 µM (inactive) | – | – | – | –
2 | COc1cc2c3c(n(C)c(=O)c2cc1OC)-c1cc2c(cc1/C3=C\CCCCCBr)OCO2 | 4.07 µM (inactive) | 4.66 µM (inactive) | – | 2.75 µM (inactive) | 9.08 µM (inactive) | 5.77 µM (inactive) | 0.115 µM (active) | 93.1 µM (inactive) | 10.6 µM (inactive) | 4.56 µM (inactive) | > 100 µM (inactive) | – | 3.01 µM (inactive) | 3.51 µM (inactive) | 11.2 µM (inactive) | 28.8 µM (inactive) | 3.73 µM (inactive) | 5.83 µM (inactive) | 4.39 µM (inactive) | 22.3 µM (inactive)
3 | CCCc1c(Cl)nc(Cl)nc1Cl | 0.0594 µM (active) | 25.4 µM (inactive) | 1.09 µM (active) | 3.08 µM (inactive) | 4.63 µM (inactive) | 0.247 µM (active) | 0.336 µM (active) | 0.377 µM (active) | 0.428 µM (active) | 4.16 µM (inactive) | 3.52 µM (inactive) | 0.192 µM (active) | < 0.01 µM (active) | 1.22 µM (inactive) | 0.175 µM (active) | 2.75 µM (inactive) | – | 1.2 µM (inactive) | 1.64 µM (inactive) | > 10 µM (inactive)
4 | COc1cc(OC)cc(N(C)Cc2cnc3nc(N)nc(N)c3c2C)c1 | 0.615 µM (active) | 5.52 µM (inactive) | – | 38.3 µM (inactive) | 0.421 µM (active) | 0.427 µM (active) | – | > 25.7 µM (inactive) | 1.25 µM (inactive) | 0.535 µM (active) | > 68.5 µM (inactive) | 0.652 µM (active) | 1.16 µM (inactive) | 0.543 µM (active) | 2.65 µM (inactive) | 0.565 µM (active) | 2.21 µM (inactive) | 0.474 µM (active) | 0.746 µM (active) | > 47.3 µM (inactive)
5 | CCCCCC(=O)CCCCCCCC(O)CC(=O)OCC (stereo not given) | > 100 µM (inactive) | > 100 µM (inactive) | – | > 100 µM (inactive) | > 100 µM (inactive) | > 100 µM (inactive) | > 100 µM (inactive) | 37.8 µM (inactive) | > 100 µM (inactive) | > 10 µM (inactive) | > 100 µM (inactive) | > 100 µM (inactive) | > 100 µM (inactive) | 64.3 µM (inactive) | > 100 µM (inactive) | > 100 µM (inactive) | > 100 µM (inactive) | > 100 µM (inactive) | > 100 µM (inactive) | –
6 | CC(C)CCCC(C)[C@H]1CCC2[C@@H]3CCC4Cc5nc6c(nc5C[C@]4(C)C3CC[C@@]21C)CC1CC[C@@H]2C(CC[C@@]3(C)C2CC[C@@H]3O)[C@@]1(C)C6 (stereo not given in full) | > 100 µM (inactive) | > 100 µM (inactive) | > 100 µM (inactive) | > 100 µM (inactive) | > 100 µM (inactive) | 87.1 µM (inactive) | > 100 µM (inactive) | > 100 µM (inactive) | > 100 µM (inactive) | > 100 µM (inactive) | > 100 µM (inactive) | > 100 µM (inactive) | > 100 µM (inactive) | > 100 µM (inactive) | > 100 µM (inactive) | > 100 µM (inactive) | – | > 100 µM (inactive) | > 100 µM (inactive) | > 100 µM (inactive)
7 | CC[C@]1(Cc2ccc(OC)c(OC)c2)C=[N+]([O-])O[C@H](OC2CCCCC2c2ccccc2)[C@@H]1OC(C)=O (stereo not given in full) | 38.1 µM (inactive) | 41.2 µM (inactive) | 22.5 µM (inactive) | 24.7 µM (inactive) | 41.5 µM (inactive) | 45.3 µM (inactive) | 61.7 µM (inactive) | 70.8 µM (inactive) | 56.1 µM (inactive) | 37.9 µM (inactive) | – | 45.3 µM (inactive) | 40.9 µM (inactive) | 46.6 µM (inactive) | 45.1 µM (inactive) | 31.8 µM (inactive) | 25.6 µM (inactive) | 37.5 µM (inactive) | 30.5 µM (inactive) | 46.7 µM (inactive)
8 | O=C1C=C(N2CCN(c3ncccn3)CC2)C(=O)c2c(O)ccc(O)c21 | 21.5 µM (inactive) | > 100 µM (inactive) | – | > 100 µM (inactive) | > 100 µM (inactive) | 53 µM (inactive) | > 100 µM (inactive) | > 100 µM (inactive) | > 100 µM (inactive) | > 100 µM (inactive) | 27.6 µM (inactive) | > 100 µM (inactive) | > 100 µM (inactive) | > 100 µM (inactive) | > 100 µM (inactive) | > 100 µM (inactive) | > 100 µM (inactive) | > 100 µM (inactive) | > 100 µM (inactive) | > 100 µM (inactive)
9 | CN(C)CCCNc1ccc([N+](=O)[O-])c2nc3ccccc3c(N)c12 | 1.21 µM (inactive) | 0.942 µM (active) | 0.736 µM (active) | 0.914 µM (active) | 0.512 µM (active) | 0.385 µM (active) | 2.44 µM (inactive) | 1.48 µM (inactive) | 0.9 µM (active) | 0.382 µM (active) | 3.33 µM (inactive) | 0.7 µM (active) | 0.36 µM (active) | 0.738 µM (active) | 0.225 µM (active) | 0.394 µM (active) | – | 0.352 µM (active) | 0.205 µM (active) | 0.755 µM (active)
10 | CCOC(=O)NNC(=O)C1CSC(c2ccccc2)N1C(C)=O (stereo not given) | > 100 µM (inactive) | > 100 µM (inactive) | – | > 100 µM (inactive) | > 100 µM (inactive) | > 100 µM (inactive) | – | > 100 µM (inactive) | > 100 µM (inactive) | > 100 µM (inactive) | > 100 µM (inactive) | > 100 µM (inactive) | > 100 µM (inactive) | > 100 µM (inactive) | > 100 µM (inactive) | > 100 µM (inactive) | > 100 µM (inactive) | > 100 µM (inactive) | > 100 µM (inactive) | > 100 µM (inactive)
11 | Cc1nc2c(=O)[nH]ncc2[nH]1 | > 100 µM (inactive) | > 100 µM (inactive) | > 100 µM (inactive) | > 100 µM (inactive) | > 100 µM (inactive) | > 100 µM (inactive) | > 100 µM (inactive) | > 100 µM (inactive) | > 100 µM (inactive) | > 100 µM (inactive) | > 100 µM (inactive) | > 100 µM (inactive) | – | > 100 µM (inactive) | > 100 µM (inactive) | > 100 µM (inactive) | – | > 100 µM (inactive) | > 100 µM (inactive) | > 100 µM (inactive)
12 | COc1c(OC)c(OC)c(C(=O)/C=C/c2ccccc2)c(OC)c1OC | 13.5 µM (inactive) | 10.5 µM (inactive) | – | 9.02 µM (inactive) | 12.5 µM (inactive) | 9.29 µM (inactive) | 13.4 µM (inactive) | 3.79 µM (inactive) | 11 µM (inactive) | 12.4 µM (inactive) | 4.32 µM (inactive) | 12 µM (inactive) | 10 µM (inactive) | 7.46 µM (inactive) | 4.47 µM (inactive) | 8.67 µM (inactive) | 3.12 µM (inactive) | 6.46 µM (inactive) | 11.7 µM (inactive) | 13.9 µM (inactive)
13 | CN1CCN(C(=S)N(C)C(=O)c2cccs2)CC1 | > 100 µM (inactive) | > 100 µM (inactive) | > 100 µM (inactive) | > 100 µM (inactive) | > 100 µM (inactive) | > 100 µM (inactive) | – | > 100 µM (inactive) | > 100 µM (inactive) | > 100 µM (inactive) | > 100 µM (inactive) | > 100 µM (inactive) | > 100 µM (inactive) | > 100 µM (inactive) | > 100 µM (inactive) | – | > 100 µM (inactive) | > 100 µM (inactive) | > 100 µM (inactive) | –
14 | CCC(C)NC(=S)N/N=C(\C)c1ccccn1 (stereo not given) | 0.155 µM (active) | 0.142 µM (active) | < 0.01 µM (active) | < 0.01 µM (active) | 0.0946 µM (active) | 0.171 µM (active) | 1.91 µM (inactive) | 0.444 µM (active) | < 0.021 µM (active) | 0.215 µM (active) | 0.396 µM (active) | 0.0372 µM (active) | < 0.0211 µM (active) | 0.126 µM (active) | < 0.01 µM (active) | < 0.01 µM (active) | – | 0.15 µM (active) | < 0.01 µM (active) | < 0.01 µM (active)
15 | COc1ccc(OC)c(C#Cc2ccc(OC)c(C(=O)NCCc3ccc(F)cc3)c2)c1 | 4.42 µM (inactive) | 28.3 µM (inactive) | – | 2.86 µM (inactive) | 7.55 µM (inactive) | > 100 µM (inactive) | 1.73 µM (inactive) | > 100 µM (inactive) | > 100 µM (inactive) | 4.67 µM (inactive) | > 100 µM (inactive) | 5.53 µM (inactive) | > 100 µM (inactive) | 6.07 µM (inactive) | 3.17 µM (inactive) | 5.14 µM (inactive) | 2.25 µM (inactive) | 5.09 µM (inactive) | > 100 µM (inactive) | > 100 µM (inactive)
